Reference: US20240342168A1, “SMALL MOLECULE INHIBITORS FOR ANTI-CANCER COMBINATION THERAPY” (UNIVERSITY OF CAPE TOWN, priority 2021, published 2024)

Tests used:
C33A = test: MTT cell viability / cisplatin IC50 determination; assay type: cell-based
Method: (§1) HeLa, SiHa, CaSki and C33A cell lines were purchased from the American Type Culture Collection (ATCC) and maintained in Dulbecco's Modified Eagle's Medium (DMEM, Gibco, Life Technologies) containing 10% Fetal Bovine Serum (Gibco, Life Technologies), supplemented with 100 U/mL penicillin and 100 μg/mL streptomycin. Cells were cultured at 37° C. in a humidified chamber with 5% CO2. All cell lines were authenticated by DNA profiling using the Cell ID System (Promega, Madison, WI, USA).
(§2) Cells were plated in 96-well plates and subjected to single or CT (2 h INI-43 pre-treatment followed by cisplatin treatment, without removing IN1-43 from the media) for 48 h. Following treatment, MTT (Sigma) was added and 4 h later crystals solubilized using 10% SLS in 0.01 M HCl. Absorbencies were measured at 595 nm and IC50 values determined via plotting [Fa/(1-Fa)] in log scale against log cisplatin concentration, where:
(§3) The half inhibitory concentration was calculated using the formula IC50=10^x-intercept

CaSki = test: MTT cell viability / cisplatin IC50 determination; assay type: cell-based; conditions: for cell viability, combination treatment vs cisplatin-only: 5 μM INI-43 pre-treatment, fixed cisplatin concentrations, MTT 48 h
Method: as §1, §2, §3

HeLa = test: MTT cell viability / cisplatin IC50 determination; assay type: cell-based; conditions: for cell viability, combination treatment vs cisplatin-only: 5 μM INI-43 pre-treatment, fixed cisplatin concentrations, MTT 48 h
Method: as §1, §2, §3

SiHa = test: MTT cell viability / cisplatin IC50 determination; assay type: cell-based; conditions: for cell viability, combination treatment vs cisplatin-only: 5 μM INI-43 pre-treatment, fixed cisplatin concentrations, MTT 48 h
Method: as §1, §2, §3

HeLa cells = test: Caspase-3/7 assay (Caspase-Glo 3/7); assay type: cell-based; conditions: INI-43 pre-treatment plus cisplatin, 48 h
Method: (§4) Cells were subjected to single or CT for 48 h, and caspase-3/7 activity monitored using the Promega Caspase-Glo^R 3/7 assay, according to the manufacturer's instructions. Luminescence was measured using the Veritas™ microplate luminometer (Promega) and results standardized to viable cells in each treatment as determined by MTT assays performed in parallel.

SiHa cells = test: Caspase-3/7 assay (Caspase-Glo 3/7); assay type: cell-based; conditions: INI-43 pre-treatment plus cisplatin, 48 h
Method: as §4

p53 in SiHa cells = test: p53 half-life determination (cycloheximide chase, Western blot); assay type: cell-based; conditions: 5 μM INI-43 2 h vs DMSO, then 50 μg/mL CHX
Method: Cells were treated with 5 μM INI-43 or DMSO for 2 hours or transfected with 20 nM si-ctrl or si-Kpnβ1 for 48 h prior to p53 half-life determination. Cells were treated with 50 μg/mL cycloheximide (CHX), and protein harvested at 0, 15, 30, 45, 60 and 90 min after CHX treatment. p53 content was analysed by western blotting. Bands were quantified by densitometrical scanning using ImageJ, normalised to GAPDH and expressed as a value relative to p53 intensity at time 0. Relative band intensities were plotted in log scale against time of CHX treatment and a linear trendline drawn. The half-life was calculated using the formula T1/2 (minutes)=Log(2)/[slope].

[1] = tested on: NFκB-p50 and NFκB-p65 in SiHa cells; test: Nuclear/cytoplasmic fractionation and Western blot; assay type: cell-based; conditions: INI-43-cisplatin CT vs cisplatin
Method: For protein extraction, cells were washed with PBS and lysed using RIPA buffer (50 mM Tris-CI, pH 7.4, 150 mM NaCl, 1% (w/v) sodium deoxycholate, 0.1% (v/v) SDS, 1% (v/v) Triton X-100, 2 mM EGTA, 2 mM EDTA, 50 mM NaF, 5 mM Na2P2O7, 1× complete protease inhibitor cocktail (Roche) and 0.1 M Sodium Orthovanadate). For PARP cleavage analysis, dead cells were collected by centrifugation and combined with live cell lysates. Lysates were sonicated, centrifuged, and the supernatant quantified using the BCA Protein Assay Kit (Pierce, Thermo Scientific) according to the manufacturer's instructions. […]
For nuclear/cytoplasmic protein extraction, cells were collected by trypsinization. […] The fractions were quantified using the BCA Protein Assay Kit (Pierce, Thermo Scientific) according to the manufacturer's instructions, followed by western blot analysis.

[2] = tested on: p53, p21 and Mcl-1 in SiHa cells; test: Western blot of p53 and p53 targets; assay type: cell-based
Method: (§5) For protein extraction, cells were washed with PBS and lysed using RIPA buffer (50 mM Tris-CI, pH 7.4, 150 mM NaCl, 1% (w/v) sodium deoxycholate, 0.1% (v/v) SDS, 1% (v/v) Triton X-100, 2 mM EGTA, 2 mM EDTA, 50 mM NaF, 5 mM Na2P2O7, 1× complete protease inhibitor cocktail (Roche) and 0.1 M Sodium Orthovanadate). For PARP cleavage analysis, dead cells were collected by centrifugation and combined with live cell lysates. Lysates were sonicated, centrifuged, and the supernatant quantified using the BCA Protein Assay Kit (Pierce, Thermo Scientific) according to the manufacturer's instructions. Proteins were subjected to Western blot analysis using the following antibodies: rabbit anti-Kpnβ1 (H-300, sc-11,367, Santa Cruz), rabbit anti-β-tubulin (H-235, sc-9104, Santa Cruz), rabbit anti-PARP1/2 antibody (H-250, sc-7150, Santa Cruz), mouse anti-GAPDH (0411, sc-47,724, Santa Cruz), rabbit anti-p21 (H-164, sc-756, Santa Cruz), rabbit anti-Mcl-1 (H-260, sc-20,679, Santa Cruz), mouse anti-cyclin D1 (HD11, sc-246, Santa Cruz), rabbit anti-c-Myc (N-262, sc-764, Santa Cruz), mouse anti-p53 (DO-7, M7001, DakoCytomation), mouse anti-XIAP (610,763, BD Biosciences), and rabbit anti-phospho-Histone H2AX (γH2AX, Ser139, 20E3, #9718, Cell Signal).

γH2AX = test: Western blot of phosphorylated Histone 2AX (DNA damage marker); assay type: cell-based; conditions: INI-43-cisplatin CT, 24 h, concentration dependent
Method: as §5

NFκB-p65 in cancer cells = conditions: van der Watt et al. 2016; cited from earlier work
[3] = 2 h INI-43 pre-treatment then cisplatin 48 h, vs no pre-treatment

CN(C)CCCn1c(N)c(-c2nc3ccccc3[nH]2)c2nc3ccccc3nc21 [INI-43]
cell viability, INI-43 on its own (C33A; 5 μM INI-43): did not affect cell viability | cell viability, combination treatment vs cisplatin-only (C33A; 5 μM INI-43 pre-treatment, fixed cisplatin concentrations, MTT 48 h): no change in cell viability | change in cisplatin IC50 (C33A; [3]): no change | cell viability, INI-43 on its own (CaSki; 5 μM INI-43): did not affect cell viability | cell viability, combination treatment vs cisplatin-only (CaSki): significantly decreased cell viability | cell viability, combination treatment vs cisplatin-only (CaSki; listed as Compound A): increased cisplatin sensitivity | change in cisplatin IC50 (CaSki; [3]): small reduction | cell viability, INI-43 on its own (HeLa; 5 μM INI-43): did not affect cell viability | cell viability, combination treatment vs cisplatin-only (HeLa): significantly decreased cell viability | cell viability, combination treatment vs cisplatin-only (HeLa; listed as Compound A): increased cisplatin sensitivity | decrease in cisplatin IC50 (HeLa; [3]): 44% | cell viability, INI-43 on its own (SiHa; 5 μM INI-43): did not affect cell viability | cell viability, combination treatment vs cisplatin-only (SiHa): significantly decreased cell viability | cell viability, combination treatment vs cisplatin-only (SiHa; listed as Compound A): increased cisplatin sensitivity | decrease in cisplatin IC50 (SiHa; [3]): 46% | increase in caspase-3/7 activation, combination vs cisplatin only (HeLa cells): 3.6 fold | increase in caspase-3/7 activation, combination vs cisplatin only (SiHa cells): 2.8 fold | increase in p53 half-life (p53 in SiHa cells): ~2.9 fold | levels of NFκB-p50 and NFκB-p65 in the nucleus [1]: reduced this effect | Mcl-1 levels, INI-43 and cisplatin vs single cisplatin ([2]; 60 μM cisplatin): reduced | p21 levels, INI-43 and cisplatin vs single cisplatin ([2]; 30 and 60 μM cisplatin): elevated | p53 protein levels ([2]; SiHa, treatment with INI-43 and cisplatin): increased | γH2AX levels (γH2AX): increased | PMA-stimulated nuclear entry of NFκB-p65 (NFκB-p65 in cancer cells): prohibited
